Measurements: the supplement of paper PMC10307832

Key:
Assay in all cases: relative viability (nuclei count vs DMSO), 5 days (fraction); higher = more cells survive
BEN = tested on: BEN
Summary of the method: (§1)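 Cells from lung cancer lines were seeded into 1536-well plates and, one day later, dosed by pin tool. Treatments were either a single drug or a fixed dose of an anchor drug with five library-drug doses (not always all listed) in √10 steps. After 5 days, nuclei were stained in a one-step fixation (final 0.05% Triton X-100, 1% formaldehyde, 1 ug/ml Hoechst) and counted on 4× images, and relative viability is the treated-to-vehicle nuclei ratio, as the median of duplicate plates.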

ChaGo-K-1 = tested on: ChaGo-K-1
Summary of the method: as §1

HCC-78 = tested on: HCC-78
Summary of the method: as §1

LC-2-ad = tested on: LC-2-ad
Summary of the method: as §1

LCLC-97TM1 = tested on: LCLC-97TM1
Summary of the method: as §1

LK-2 = tested on: LK-2
Summary of the method: as §1

LU99A = tested on: LU99A
Summary of the method: as §1

LXF-289 = tested on: LXF-289
Summary of the method: as §1

NCI-H1355 = tested on: NCI-H1355
Summary of the method: as §1

NCI-H1651 = tested on: NCI-H1651
Summary of the method: as §1

NCI-H1666 = tested on: NCI-H1666
Summary of the method: as §1

O=c1cc(N2CCOCC2)oc2c(-c3cccc4c3sc3ccccc34)cccc12 + Nc1ncn([C@H]2C[C@H](O)[C@@H](CO)O2)c(=O)n1 [Decitabine] (partner 2 µM) showed a relative viability (BEN; first compound 0.01 µM) of 0.73, a relative viability (BEN; first compound 0.03162 µM) of 0.748 and a relative viability (BEN; first compound 0.1 µM) of 0.589. For the same molecule, the relative viability (BEN; first compound 0.3162 µM) was 0.76, the relative viability (BEN; first compound 1 µM) was 0.664 and the relative viability (ChaGo-K-1; first compound 0.01 µM) was 0.524. The relative viability (ChaGo-K-1; first compound 0.03162 µM) was 0.539, the relative viability (ChaGo-K-1; first compound 0.1 µM) was 0.532 and the relative viability (ChaGo-K-1; first compound 0.3162 µM) was 0.57. For the same molecule, the relative viability (ChaGo-K-1; first compound 1 µM) was 0.546, the relative viability (HCC-78; first compound 0.01 µM) was 0.611 and the relative viability (HCC-78; first compound 0.03162 µM) was 0.716. It also gave a relative viability (HCC-78; first compound 0.1 µM) of 0.544, a relative viability (HCC-78; first compound 0.3162 µM) of 0.652 and a relative viability (HCC-78; first compound 1 µM) of 0.692. It also gave a relative viability (LC-2-ad; first compound 0.01 µM) of 0.736, a relative viability (LC-2-ad; first compound 0.03162 µM) of 0.801 and a relative viability (LC-2-ad; first compound 0.1 µM) of 0.79. It also gave a relative viability (LC-2-ad; first compound 0.3162 µM) of 0.822, a relative viability (LC-2-ad; first compound 1 µM) of 0.893 and a relative viability (LCLC-97TM1; first compound 0.01 µM) of 0.261. The relative viability (LCLC-97TM1; first compound 0.03162 µM) was 0.227, the relative viability (LCLC-97TM1; first compound 0.1 µM) was 0.227 and the relative viability (LCLC-97TM1; first compound 0.3162 µM) was 0.252. It also gave a relative viability (LCLC-97TM1; first compound 1 µM) of 0.235, a relative viability (LK-2; first compound 0.01 µM) of 0.355 and a relative viability (LK-2; first compound 0.03162 µM) of 0.324. The relative viability (LK-2; first compound 0.1 µM) was 0.338, the relative viability (LK-2; first compound 0.3162 µM) was 0.278 and the relative viability (LK-2; first compound 1 µM) was 0.285. It also gave a relative viability (LU99A; first compound 0.01 µM) of 0.906, a relative viability (LU99A; first compound 0.03162 µM) of 1.01 and a relative viability (LU99A; first compound 0.1 µM) of 0.993. For the same molecule, the relative viability (LU99A; first compound 0.3162 µM) was 0.827, the relative viability (LU99A; first compound 1 µM) was 0.978 and the relative viability (LXF-289; first compound 0.01 µM) was 0.457. It also gave a relative viability (LXF-289; first compound 0.03162 µM) of 0.386, a relative viability (LXF-289; first compound 0.1 µM) of 0.391 and a relative viability (LXF-289; first compound 0.3162 µM) of 0.371. For the same molecule, the relative viability (LXF-289; first compound 1 µM) was 0.392, the relative viability (NCI-H1355; first compound 0.01 µM) was 0.377 and the relative viability (NCI-H1355; first compound 0.03162 µM) was 0.339. The relative viability (NCI-H1355; first compound 0.1 µM) was 0.409, the relative viability (NCI-H1355; first compound 0.3162 µM) was 0.351 and the relative viability (NCI-H1355; first compound 1 µM) was 0.352. For the same molecule, the relative viability (NCI-H1651; first compound 0.01 µM) was 0.563, the relative viability (NCI-H1651; first compound 0.03162 µM) was 0.615 and the relative viability (NCI-H1651; first compound 0.1 µM) was 0.593. For the same molecule, the relative viability (NCI-H1651; first compound 0.3162 µM) was 0.642, the relative viability (NCI-H1651; first compound 1 µM) was 0.61 and the relative viability (NCI-H1666; first compound 0.01 µM) was 0.71. The relative viability (NCI-H1666; first compound 0.03162 µM) was 0.762, the relative viability (NCI-H1666; first compound 0.1 µM) was 0.713 and the relative viability (NCI-H1666; first compound 0.3162 µM) was 0.736.
